{
  "source": "patent US20060286032A1",
  "about": "“A radiosotope-chitosan complex for treatment of prostate cancer” (priority 2003, published 2006)",
  "key": {"[1]": {"test_system": "AIT carcinoma (androgen-independent carcinoma cell line)", "assay": "Antitumor effect in AIT subcutaneous tumor model", "type": "in vivo, noble rats", "conditions": "non-radioactive complex group; for Tumor growth inhibition rate: four weeks, tumor weight vs control", "description": "To evaluate the effect of the complex on hormone-independent prostate cancer, an AIT carcinoma (androgen-independent carcinoma cell line) was transplanted into noble rats, and the antitumor effect of the complex was examined.\nAn androgen-independent, prostate carcinoma cell line, AIT, which is derived from noble rats, was cultured in 10% FBS-containing DMEM at 37° under 5% CO2. The cultured carcinoma cells were suspended in sterile physiological saline at a density of 4×10^6 cells/ml, and 2×10^6 cells were subcutaneously transplanted into the lateral abdomen of male 5-week noble rats. When the long axis of the tumor was about 1 cm long (in this test, 14 days after transplantation), the rats were grouped according to the tumor mass. The kit prepared in Example 2 was used as a test drug, and was administered at the same dose as in Experimental Example 5, that is, 0.2 ml. The rats were divided into four groups: a control group (no treatment); two administration groups administered with the complex solution at 10 mCi and 20 mCi per 1 cm^3 tumor; and another administration group administered with a non-radioactive complex solution (Holmium-165 (^165Ho)-chitosan complex solution). Four weeks after administration with the complex solution, tumors were excised from the rats, and tumor growth inhibition rates were measured by weighing the tumors."}, "[2]": {"assay": "Histopathological examination of organs of rats of the orthotopic model (hematoxylin and eosin)", "type": "in vivo, noble rats", "conditions": "last day of the test", "from_the_text": "From all rats tested in Experimental Example 7, which were sacrificed on the last day of the test, the heart, lung, liver, kidney, spleen, testes, epididymis, seminal vesicle, bladder, rectum and tumor tissues were excised, embedded in paraffin according to general tissue processing, and sectioned into a thickness of 3 μm. The tissue sections were subjected to double staining with hematoxylin and eosin and histopathologically examined."}, "[3]": {"test_system": "AIT prostate carcinoma cells", "assay": "Antitumor effect in orthotopic tumor model, AIT transplanted into the prostate gland", "type": "in vivo, noble rats", "conditions": "non-radioactive complex group", "description": "In addition to the subcutaneous tumor model tested in Experimental Example 6, the antitumor effect and side effects of the complex solution was examined in an orthotopic tumor model where AIT prostate carcinoma cells had been directly transplanted into the prostate gland. AIT cells were cultured in 10% FBS-containing DMEM at 37° under 5% CO2. The cultured carcinoma cells were suspended in sterile physiological saline at a density of 2×10^6 cells/0.05 ml. After noble rats were anesthetized with fentanyl and the abdomen was opened, 2×10^6 cells per rat were transplanted into the prostate gland of the rats. Seven days after carcinoma transplantation, the rats were randomly allocated. The kit prepared in Example 2 was used as a test drug, and 0.05 ml of the kit was administered. The rats were divided into four groups: a control group (no treatment); two administration groups administered with 0.5 mCi and 1.0 mCi of the complex solution; and another administration group administered with a non-radioactive complex solution (Holmium-165 (^165Ho)-chitosan complex solution). Two and four weeks after administration of the complex solution, the rats were sacrificed, and tumors were excised from the rats and weighed."}, "[4]": {"test_system": "DU-145 carcinoma cell line (hormone-independent prostate carcinoma cell line)", "assay": "Antitumor effect in DU-145 subcutaneous tumor model, intratumoral injection", "type": "in vivo, nude mice", "conditions": "for Tumor volume after injection / Tumor growth inhibition rate: non-radioactive complex group; for Tumor volume after injection: 0.2 ml intratumoral; for Tumor growth inhibition rate: last day of the test (2 wks), tumor volume vs control", "description": "To investigate the effect of the complex on hormone-independent prostate cancer, a DU-145 carcinoma cell line (hormone-independent prostate carcinoma cell line), which is rarely produces prostate-specific antigen, was transplanted into nude mice and the antitumor effect of the complex was evaluated.\nThe DU-145 cells were cultured in 10% FBS (fetal bovine serum)-containing F-12K(Kaign's Modification of Ham's F-12 medium) in a 5% CO2 incubator at 37° C., and 2×10^5 cells/0.2 ml/head were subcutaneously transplanted into the lumbar portion of male 6-week nude mice. When the long axis of the tumor was about 1 cm long, the complex solution was intratumorally injected. The administration volume of the test drug was 0.2 ml. The mice were divided into four groups: a control group (no treatment); two administration groups administered with the complex solution at doses of 10 mCi and 20 mCi per 1 cm^3 tumor; and another administration group administered with a non-radioactive complex solution [Holmium-165 (^165Ho)-chitosan complex solution]. Two weeks after administration with the complex solution, the mice were histopathologically examined to evaluate the antitumor effect and toxicity to major organs of the complex."}, "[5]": {"assay": "Autoradiography, complex solution versus ^166Ho(NO3)3.5H2O solution not containing chitosan, injected into the prostate gland", "type": "in vivo, rats", "conditions": "for Radioactive concentration, Administration site / Radioactive concentration, End region of femur / Radioactive concentration, Liver / Radioactive concentration, Spine / Radioactive concentration, Spleen / Radioactive concentration, Kidney: 25 μl (about 100 μCi); for Radioactivity retained in the administration site, the prostate gland: 24 hrs after being administered", "description": "To investigate advantages of the ^166Ho-chitosan complex, autoradiography was carried out for a group administered with the complex solution and a control group administered with a ^166Ho(NO3)3.5H2O solution not containing chitosan. In the complex solution administration group, 25 μl of the complex solution was administered, which was equal to about 100 μCi. The control group was administered with a ^166Ho(NO3)3.5H2O solution not containing chitosan with the same dosage and radioactive concentration as in the complex solution administration group. This test was carried out according to the same method as in Experimental Example 1, and each test drug was administered to the prostate gland. After 0.5, 2, 6 and 24 hrs, rats were sacrificed and evaluated by autoradiography. The measured radioactive concentrations (% ID/g) in various organs after injection of the complex solution and the ^166Ho(NO3)3.5H2O solution are given in Table 2, below."}, "[6]": {"conditions": "listed as non-radioactive complex solution"}},
  "note": "Marks after values point to notes of the source that are not given here.",
  "data": [
    {"compound": "Holmium-165 (^165Ho)-chitosan complex [Non-radioactive complex, reference compound]", "values": [
      {"measurement": "Tumor weight", "setting": "[1]; four weeks after administration", "value": "18.1 ± 4.37", "unit": "g"},
      {"measurement": "Tumor growth inhibition rate", "setting": "[1]", "value": 20.4, "unit": "%"},
      {"measurement": "Tumor growth inhibition rate", "setting": "[1]; [6]", "value": "about 20%"},
      {"measurement": "Histopathological changes in organs other than the tumor tissue (heart, lung, liver, kidney, spleen, testes, epididymis, seminal vesicle, bladder, rectum)", "setting": "[2]", "value": "no abnormalities in adjacent organs were found"},
      {"measurement": "Tumor weight", "setting": "[3]; 2 wks after administration", "value": "1.93 ± 0.29", "unit": "g"},
      {"measurement": "Tumor weight", "setting": "[3]; 4 wks after administration", "value": "32.62 ± 2.32", "unit": "g"},
      {"measurement": "Change in tumor volume", "setting": "[4]; last day of the test", "value": "greatly increased"},
      {"measurement": "Tumor volume after injection", "setting": "[4]; 1 wk", "value": "1.24 ± 0.61", "unit": "cm^3"},
      {"measurement": "Tumor volume after injection", "setting": "[4]; 2 wks", "value": "5.03 ± 1.51", "unit": "cm^3"},
      {"measurement": "Tumor growth inhibition rate", "setting": "[4]", "value": 23.1, "unit": "%"},
      {"measurement": "Tumor growth inhibition rate", "setting": "[4]; [6]", "value": "about 20%"}
    ]},
    {"compound": "O.O.O.O.O.O=[N+]([O-])[O-].O=[N+]([O-])[O-].O=[N+]([O-])[O-].[166Ho+3]", "note": "[^166Ho, ^166Ho(NO3)3.5H2O]", "values": [
      {"measurement": "Radioactive concentration, Administration site", "setting": "[5]; 30 min", "value": "4532 ± 513.4", "unit": "% ID/g"},
      {"measurement": "Radioactive concentration, End region of femur", "setting": "[5]; 30 min", "value": "0.02^b % ID/g"},
      {"measurement": "Radioactive concentration, Liver", "setting": "[5]; 30 min", "value": "0.02 ± 0.011", "unit": "% ID/g"},
      {"measurement": "Radioactive concentration, Spine", "setting": "[5]; 30 min", "value": "0.01^b % ID/g"},
      {"measurement": "Radioactive concentration, Administration site", "setting": "[5]; 2 hrs", "value": "4404 ± 1806.8", "unit": "% ID/g"},
      {"measurement": "Radioactive concentration, End region of femur", "setting": "[5]; 2 hrs", "value": "0.11 ± 0.104", "unit": "% ID/g"},
      {"measurement": "Radioactive concentration, Liver", "setting": "[5]; 2 hrs", "value": "0.04 ± 0.024", "unit": "% ID/g"},
      {"measurement": "Radioactive concentration, Spine", "setting": "[5]; 2 hrs", "value": "0.03 ± 0.030", "unit": "% ID/g"},
      {"measurement": "Radioactive concentration, Spleen", "setting": "[5]; 2 hrs", "value": "0.03 ± 0.009", "unit": "% ID/g"},
      {"measurement": "Radioactive concentration, Administration site", "setting": "[5]; 6 hrs", "value": "2197 ± 1334.3", "unit": "% ID/g"},
      {"measurement": "Radioactive concentration, End region of femur", "setting": "[5]; 6 hrs", "value": "0.32 ± 0.068", "unit": "% ID/g"},
      {"measurement": "Radioactive concentration, Kidney", "setting": "[5]; 6 hrs", "value": "0.03 ± 0.008", "unit": "% ID/g"},
      {"measurement": "Radioactive concentration, Liver", "setting": "[5]; 6 hrs", "value": "0.12 ± 0.022", "unit": "% ID/g"},
      {"measurement": "Radioactive concentration, Spine", "setting": "[5]; 6 hrs", "value": "0.07 ± 0.010", "unit": "% ID/g"},
      {"measurement": "Radioactive concentration, Spleen", "setting": "[5]; 6 hrs", "value": "0.07 ± 0.006", "unit": "% ID/g"},
      {"measurement": "Radioactive concentration, Administration site", "setting": "[5]; 24 hrs", "value": "1067 ± 941.8", "unit": "% ID/g"},
      {"measurement": "Radioactive concentration, End region of femur", "setting": "[5]; 24 hrs", "value": "1.74 ± 0.424", "unit": "% ID/g"},
      {"measurement": "Radioactive concentration, Kidney", "setting": "[5]; 24 hrs", "value": "0.07 ± 0.025", "unit": "% ID/g"},
      {"measurement": "Radioactive concentration, Liver", "setting": "[5]; 24 hrs", "value": "0.18 ± 0.150", "unit": "% ID/g"},
      {"measurement": "Radioactive concentration, Spine", "setting": "[5]; 24 hrs", "value": "0.45 ± 0.123", "unit": "% ID/g"},
      {"measurement": "Radioactive concentration, Spleen", "setting": "[5]; 24 hrs", "value": "0.11 ± 0.073", "unit": "% ID/g"},
      {"measurement": "Radioactivity retained in the administration site, the prostate gland", "setting": "[5]; listed as 166Ho(NO3)3.5H2O solution", "value": "about 30%"},
      {"measurement": "Radioactivity retained in the administration site, the prostate gland", "setting": "[5]; listed as radioisotope solution not containing chitosan", "value": 30, "unit": "%"},
      {"measurement": "Radioactive concentration in liver, spleen, kidney and end region of the femur, fold higher than in the complex solution group", "setting": "[5]; after 6 and 24 hrs", "value": "2 to 4", "unit": "fold"},
      {"measurement": "Radioactive concentration in the administration site, fold lower than in the complex solution group", "setting": "[5]; after 6 hrs", "value": 2, "unit": "fold"},
      {"measurement": "Radioactive concentration in the administration site, fold lower than in the complex solution group", "setting": "[5]; after 24 hrs", "value": 3, "unit": "fold"}
    ]}
  ]
}
